Data set [1] can be described thus: Cytotoxicity in HepG2 cells, Resazurin assay. To be noted: human, HepG2 cells, TOX-HepG2-4 d CC50 (μM), HepG2 cells incubated for 4 days, viability by Resazurin assay.
In another data set the test system is HBV. The data set is described as follows: anti HBV activity, HepG2.117 cell line, intracellular HBV DNA by realtime PCR. The data set is classed as cell-based. To be noted: HepG2.117 cell line (Tet-off), 3 days of treatment, intracellular HBV DNA quantified by realtime PCR, read-out: HBV-AVE-HepG2.117 EC50. How it is done: The anti HBV activity was measured using the HepG2.117 cell line, a stable, inducibly HBV producing cell line, which replicates HBV in the absence of doxicycline (Tet-off system). For the antiviral assay, HBV replication was induced, followed by a treatment with serially diluted compound in 96-well plates in duplicate. After 3 days of treatment, the antiviral activity was determined by quantification of intracellular HBV DNA using realtime PCR and an HBV specific primer set and probe.

Where [2] appears, read: Hepatitis B virus, HepG2.117, 72 h.

Read-outs that look alike come from different tables or passages of the source.

Broadly, the CC50 is the concentration giving 50% cytotoxicity. A low value points to harm at low concentration. As a reminder, the EC50 is the concentration at which the effect is half-maximal.

The compound `CC(C)[C@H]1COc2c(ccc(F)c2C(=O)Nc2ccc(F)c(F)c2)S(=O)(=O)N1` [Compound 44, (3S)—N-(3,4-difluorophenyl)-7-fluoro-3-isopropyl-1,1-dioxo-3,4-dihydro-2H-5,1λ^6,2-benzoxathiazepine-6-carboxamide] registered a CC50 at 4 days in data set [1] greater than 25 µM. Further, the EC50 in the data set with HBV (setting [2]) was found to be 170 nM. In the same order, the values of `CC(C)[C@@H]1COc2c(ccc(F)c2C(=O)Nc2ccc(F)c(F)c2)S(=O)(=O)N1` [Compound 48, (3R)—N-(3,4-difluorophenyl)-7-fluoro-3-isopropyl-1,1-dioxo-3,4-dihydro-2H-5,1λ^6,2-benzoxathiazepine-6-carboxamide] are greater than 25 µM and 84 nM. Turning to `C[C@H](O)[C@@H]1COc2c(cn(C)c2C(=O)Nc2ccc(F)c(F)c2)S(=O)(=O)N1` [Compound 37, (3S)—N-(3,4-difluorophenyl)-3-[(1S)-1-hydroxyethyl]-7-methyl-1,1-dioxo-3,4-dihydro-2H-pyrrolo[3,4-b][1,4,5]oxathiazepine-6-carboxamide], the CC50 at 4 days in data set [1] was greater than 25 µM. Besides, in the data set with HBV (setting [2]), the EC50 was 200 nM. `Cn1cc2c(c1C(=O)Nc1ccc(F)c(F)c1)OC[C@H](c1ccccc1)NS2(=O)=O` [Compound 26, (3S)—N-(3,4-difluorophenyl)-7-methyl-1,1-dioxo-3-phenyl-3,4-dihydro-2H-pyrrolo[3,4-b][1,4,5]oxathiazepine-6-carboxamide] had a CC50 at 4 days in data set [1] greater than 25 µM. Moreover, the EC50 in the data set on HBV (setting [2]) turned out to be 27 nM. The matching figures for `Cc1cc(NC(=O)c2c3c(cn2C)S(=O)(=O)N[C@@H]([C@H](C)O)CO3)ccc1F` [Compound 200, (3R)—N-(4-fluoro-3-methyl-phenyl)-3-[(1S)-1-hydroxyethyl]-7-methyl-1,1-dioxo-3,4-dihydro-2H-pyrrolo[3,4-b][1,4,5]oxathiazepine-6-carboxamide]: greater than 25 µM and 84 nM. In the same order, the values of `Cn1cc2c(c1C(=O)Nc1ccc(F)c(F)c1)OCC(C)(c1ncccn1)NS2(=O)=O` (racemic) [Compound 153, N-(3,4-difluorophenyl)-3,7-dimethyl-1,1-dioxo-3-pyrimidin-2-yl-2,4-dihydropyrrolo[3,4-b][1,4,5]oxathiazepine-6-carboxamide] are greater than 25 µM and 68 nM. The matching figures for `CC1CCC/C=C\Cc2c(cn(C)c2C(=O)Nc2ccc(F)c(F)c2)S(=O)(=O)N1` (centres unmarked) [Compound 2a, 8Z—N-(3,4-difluorophenyl)-4,13-dimethyl-2,2-dioxo-2λ^6-thia-3,13-diazabicyclo[9.3.0]tetradeca-1(14),8,11-triene-12-carboxamide]: greater than 25 µM and 280 nM. Compound `Cn1cc2c(c1C(=O)Nc1ccnc(Cl)c1)OCC(C)(CO)NS2(=O)=O` (single isomer, unassigned) [Compound 204a, N-(2-chloro-4-pyridyl)-3-(hydroxymethyl)-3,7-dimethyl-1,1-dioxo-2,4-dihydropyrrolo[3,4-b][1,4,5]oxathiazepine-6-carboxamide] had a CC50 at 4 days in data set [1] greater than 25 µM. Moreover, the EC50 in the data set on HBV (setting [2]) is greater than 125 nM.

In the case of `CC1CCOc2c(cn(C)c2C(=O)Nc2ccc(F)c(F)c2)S(=O)(=O)N1` (centres unmarked) [Compound 21, N-(3,4-difluorophenyl)-3,8-dimethyl-1,1-dioxo-2,3,4,5-tetrahydropyrrolo[3,4-b][1,4,5]oxathiazocine-7-carboxamide], in data set [1], the half-maximal cytotoxic concentration (CC50) at 4 days is greater than 25 µM. Also, the EC50 with HBV (setting [2]) amounted to 150 nM. Take `Cc1cc(CC2(C)COc3c(cn(C)c3C(=O)Nc3ccnc(Cl)c3)S(=O)(=O)N2)no1` (single isomer, unassigned) [Compound 213a, N-(2-chloro-4-pyridyl)-3,7-dimethyl-3-[(5-methylisoxazol-3-yl)methyl]-1,1-dioxo-2,4-dihydropyrrolo[3,4-b][1,4,5]oxathiazepine-6-carboxamide]: the CC50 at 4 days in data set [1] is greater than 25 µM. In the data set with HBV, the EC50 amounted to 48 nM. As for `C[C@H]1NS(=O)(=O)c2cn(C)c(C(=O)Nc3ccc(F)c(F)c3)c2O[C@@H]1C` [compound 231], in data set [1], the CC50 at 4 days is greater than 25 µM. The EC50 in the data set on HBV (setting [2]) was greater than 500 nM. The matching figures for `CCC1(C)COc2c(cn(C)c2C(=O)Nc2ccc(F)c(F)c2)S(=O)(=O)N1` (single isomer, unassigned) [Compound 134a, N-(3,4-difluorophenyl)-3-ethyl-3,7-dimethyl-1,1-dioxo-2,4-dihydropyrrolo[3,4-b][1,4,5]oxathiazepine-6-carboxamide]: greater than 25 µM and 8 nM.

The compound `CC1CCCC/C=C/Cc2c(cn(C)c2C(=O)Nc2ccc(F)c(F)c2)S(=O)(=O)N1` (centres unmarked) [Compound 1, (9E)-N-(3,4-difluorophenyl)-4,14-dimethyl-2,2-dioxo-2λ^6-thia-3,14-diazabicyclo[10.3.0]pentadeca-1(15),9,12-triene-13-carboxamide] showed a CC50 at 4 days in data set [1] greater than 25 µM. The EC50 in the data set with HBV (setting [2]) turned out to be 2740 nM. In the same order, the values of `Cc1cc(NC(=O)c2c3c(cn2C)S(=O)(=O)N[C@@H](C(O)C2CC2)CO3)ccc1F` (single isomer, unassigned) [Compound 206a, 3-[cyclopropyl(hydroxy)methyl]-N-(4-fluoro-3-methyl-phenyl)-7-methyl-1,1-dioxo-3,4-dihydro-2H-pyrrolo[3,4-b][1,4,5]oxathiazepine-6-carboxamide] are greater than 25 µM and 13 nM. As to `Cc1cccc(C2(C)COc3c(cn(C)c3C(=O)Nc3ccc(F)c(F)c3)S(=O)(=O)N2)n1` (racemic) [Compound 168, N-(3,4-difluorophenyl)-3,7-dimethyl-3-(6-methyl-2-pyridyl)-1,1-dioxo-2,4-dihydropyrrolo[3,4-b][1,4,5]oxathiazepine-6-carboxamide], the CC50 at 4 days in data set [1] is greater than 25 µM. Also, the EC50 with HBV (setting [2]) stood at 25 nM.

Compound `Cc1cc(CC2(C)COc3c(cn(C)c3C(=O)Nc3ccc(F)c(F)c3)S(=O)(=O)N2)no1` (racemic) [Compound 162, N-(3,4-difluorophenyl)-3,7-dimethyl-3-[(5-methylisoxazol-3-yl)methyl]-1,1-dioxo-2,4-dihydropyrrolo[3,4-b][1,4,5]oxathiazepine-6-carboxamide] registered a CC50 at 4 days in data set [1] greater than 25 µM. Moreover, the EC50 in the data set with HBV (setting [2]) amounted to 3 nM.

For `Cn1cc2c(c1C(=O)Nc1cc(F)c(F)c(F)c1)CCC(C(C)(C)O)NS2(=O)=O` (single isomer, unassigned) [Compound 149a, 3-(1-hydroxy-1-methyl-ethyl)-7-methyl-1,1-dioxo-N-(3,4,5-trifluorophenyl)-2,3,4,5-tetrahydropyrrolo[3,4-f]thiazepine-6-carboxamide], in data set [1], the CC50 at 4 days was greater than 25 µM. Further, the EC50 in the data set on HBV is greater than 125 nM. Turning to `Cn1cc2c(c1C(=O)Nc1ccc(F)c(F)c1)C=CC(C)(Cc1ccc(Cl)nc1)NS2(=O)=O` (centres unmarked) [Compound 219, 3-[(6-chloro-3-pyridyl)methyl]-N-(3,4-difluorophenyl)-3,7-dimethyl-1,1-dioxo-2H-pyrrolo[3,4-f]thiazepine-6-carboxamide], the CC50 at 4 days in data set [1] was greater than 25 µM. For `C[C@@H]1NS(=O)(=O)c2cn(C)c(C(=O)Nc3ccc(F)c(F)c3)c2O[C@H]1C` [compound 229], the CC50 at 4 days in data set [1] is greater than 25 µM. The EC50 in the data set with HBV (setting [2]) was greater than 500 nM. In data set [1], `CC(C)C(O)C1COc2c(cn(C)c2C(=O)Nc2ccc(F)c(C#N)c2)S(=O)(=O)N1` (centres unmarked) [Compound 119a, N-(3-cyano-4-fluoro-phenyl)-3-(1-hydroxy-2-methyl-propyl)-7-methyl-1,1-dioxo-3,4-dihydro-2H-pyrrolo[3,4-b][1,4,5]oxathiazepine-6-carboxamide] yielded a CC50 at 4 days greater than 25 µM. For the same compound, the EC50 with HBV (setting [2]) is 11 nM. In the same order, the values of `CC(NCC(F)(F)F)C1CCc2c(cn(C)c2C(=O)Nc2cc(F)c(F)c(F)c2)S(=O)(=O)N1` (single isomer, unassigned) [Compound 218a, 7-methyl-1,1-dioxo-3-[1-(2,2,2-trifluoroethylamino)ethyl]-N-(3,4,5-trifluorophenyl)-2,3,4,5-tetrahydropyrrolo[3,4-f]thiazepine-6-carboxamide] are greater than 25 µM and greater than 125 nM.

With `Cc1ccc(NC(=O)c2c(F)ccc3c2OC[C@H](C(C)C)NS3(=O)=O)cc1F` [compound 232], the CC50 at 4 days in data set [1] is greater than 25 µM. Also, the EC50 in the data set on HBV (setting [2]) is greater than 500 nM.

`Cn1cc2c(c1C(=O)Nc1ccc(F)c(Cl)c1)OC[C@H](C(O)C1CC1)NS2(=O)=O` (single isomer, unassigned) [Compound 207a, N-(3-chloro-4-fluoro-phenyl)-3-[cyclopropyl(hydroxy)methyl]-7-methyl-1,1-dioxo-3,4-dihydro-2H-pyrrolo[3,4-b][1,4,5]oxathiazepine-6-carboxamide] returned a CC50 at 4 days in data set [1] greater than 25 µM. The EC50 with HBV (setting [2]) came to 8 nM. Compound `Cc1cccc(C2(C)COc3c(cn(C)c3C(=O)Nc3ccc(F)c(C(F)F)c3)S(=O)(=O)N2)n1` (single isomer, unassigned) [Compound 177a, N-[3-(difluoromethyl)-4-fluoro-phenyl]-3,7-dimethyl-3-(6-methyl-2-pyridyl)-1,1-dioxo-2,4-dihydropyrrolo[3,4-b][1,4,5]oxathiazepine-6-carboxamide] gave a CC50 at 4 days in data set [1] greater than 25 µM. The same measure, in the same setting: to `Cc1cc(CC2(C)COc3c(cn(C)c3C(=O)Nc3cc(F)c(F)c(F)c3)S(=O)(=O)N2)no1` (single isomer, unassigned) [Compound 170a, 3,7-dimethyl-3-[(5-methylisoxazol-3-yl)methyl]-1,1-dioxo-N-(3,4,5-trifluorophenyl)-2,4-dihydropyrrolo[3,4-b][1,4,5]oxathiazepine-6-carboxamide] belongs greater than 25 µM.

Source of the values: patent US10875876B2, “Cyclized sulfamoylarylamide derivatives and the use thereof as medicaments for the treatment of hepatitis B” (priority 2015, dated 2020).
